From US20150343016A1, “CHEMICAL ENTITIES AND THERAPEUTIC USES THEREOF” (The Regents of the University of Colorado, a body corporate, priority 2010, published 2015)

Experiments:
[1] = test system: grp (Chk1) mutant Drosophila larvae; test: Drosophila larval survival to adulthood (eclosion), drug with and without IR, grp (Chk1) mutants; format: in vivo; conditions: for manner in which drug and radiation act together: grp (Chk1) mutants
Procedure: To validate the identification of Bouvardin from the primary screen, the effect of this molecule on Drosophila larvae alone or in combination with radiation were assessed (FIG. 12). The screen was performed using irradiated mutant larvae. Hits from the screen were defined as those that reduced the survival of IRRADIATED larvae compared to the population of drugs being tested (approximately 80 molecules at a time) or compared to DMSO controls in the re-test. A hit could therefore act by enhancing the effect of radiation, or by simply killing larvae as a single agent, or both. To distinguish among these possibilities, hits from the screen were re-tested against larvae with and without irradiation.
In FIG. 12 survival after each treatment is expressed as the fraction of animals that emerged (“eclosed”) as viable adults. The averages have been normalized to the average fraction eclosed in no IR/drug control for the respective genotype. Error bars extend beyond fractional survival of 1.0 simply because of normalization. (A-C) Fraction eclosed for WT and grp and p53 mutants at 16 uM of Bouvardin, with and without IR. The data are averages of 3-8 biological replicates per sample. Dotted line on each graph denotes expected ‘fraction eclosed’ if drug and IR act additively. IR doses were 4000R for WT and grp and 3000R for p53 because of the higher radiation sensitivity of the latter. (D) Fraction eclosed for Minute mutants and yw controls after exposure to 0 (−IR) and 2000R (+IR) of X-rays. N ranged from 86-207 per genotype per treatment, in 3 biological replicates per sample. *=p<0.01; **=<0.001. 100R=1Gy. Error bar=1 standard deviation.
The activity of Bouvardin in Drosophila alone or in combination with ionizing radiation (IR) was assessed. Drug concentrations of 10-20 μM were used to approximate the conditions of the original screen. Third instar larvae were irradiated and cultured on medium containing drug. The survival of larvae was quantified 10 days later by measuring the rate of eclosion into adulthood. […]

[2] = test system: head and neck squamous cell carcinola line (UMSCC2B); test: MTT assay, bouvardin with radiation, UMSCC2B; format: cell-based, human; conditions: over a wide range of concentrations
Procedure: MTT assays were used to test the effects of bouvardin alone and in combination with radiation on numerous cell lines. Bouvardin and radiation synergize in non-small cell lung cancer cell line (H157) and head and neck squamous cell carcinola line (UMSCC2B) over a wide range of concentrations between bouvardin and radiation. FIG. 8 depicts this synergy in these two cell lines. The efficiency of bouvardin in sensitizing cancer cells to radiation is measured in terms of Combination Index (CI) as determined by Calcusyn software. CI values are either above, below or equal to 1, indicating antagonizing, synergistic or additive effects respectively. “Gy” in FIG. 8 stands for “Gray,” a radiation unit.
The growth inhibitory effects of Bouvardin with ionizing radiation (IR) were evaluated using a modified tetrazolium salt (MTT) assay. In the MTT assay, 1,000 to 2,000 viable cells were plated in 100 uL of growth medium in 96-well plates (Corning, Ithaca, N.Y.). Following an overnight incubation, drug was added in varying concentrations and the plates were irradiated on the same day (co-treatment) or 24 hr later (pre-treatment) and incubated for 6 to 7 days. The tetrazolium salt was added at a concentration of 0.4 mg/mL to each well following the 6- to 7-day treatment. […] The absorbency of each well was measured using an automated plate reader (Molecular Devices, Sunnyvale, Calif.). […]

Structure (SMILES): COc1ccc(C[C@H]2C(=O)N[C@H](C)C(=O)N(C)[C@@H]3C(=O)N(C)[C@@H](Cc4ccc(O)c(c4)Oc4ccc(cc4)[C@H]3O)C(=O)N[C@@H](C)C(=O)N[C@H](C)C(=O)N2C)cc1 (stereo in doubt) [Bouvardin, bouvardin]
- manner in which drug and radiation act together [1]: synergistic manner
- manner in which drug and radiation act together ([1]; listed as bouvardin): appear to synergize
- effect on the killing effect of radiation (+IR versus +both) ([1]; grp mutants, drug 10-20 μM): increased the killing effect of radiation in a statistically significant manner
- interaction of Bouvardin with radiation [2]: synergize
